This is an account of results in US9260461B2, “Water-soluble derivatives and prodrugs of acacetin and methods of making and using thereof” (Versitech Limited, priority 2014, dated 2016).

Where two headings read alike, the source gives them in different places. Where only a bound is given, the exact number is not on record here.

For data set [1] the following is noted: background statement; cited from earlier work.
For a further data set, the system named is isolated rat hearts. The experiment in a line: Ischemia-reperfusion model in isolated rat hearts (Langendorff): coronary flow rate and contractile function. More on the design: species or system SD rats. The conditions noted are these: for coronary flow rate versus control: n=10-12. The protocol: Male SD rats (250-300 g) were anesthetized with phenobarbital (30 mg/kg, i.p.), and the heart were isolated and mounted to a Langendorff heart perfusion apparatus via the aorta and perfused with Krebs-Henseleit solution at 37° C. gassed with 95% O2 and 5% CO2. A saline-filled latex balloon connected by a polyethylene catheter to a pressure transducer was inserted into the left ventricle via an incision on the left atrium to measure left ventricular (LV) pressure. The balloon volume was adjusted and kept at a diastolic pressure of 0-5 mm Hg following insertion. ECG was recorded with two electrodes placed at the apex and the aorta. Signals were continuously monitored and stored on an IBM compatible PC computer using a multiple channels data acquisition system (Chengdu Instrument Ltd, Chendu, China).
A silk suture was placed around the left anterior descending artery (LAD) 2 mm distal to the left atrial appendage. A short length of polyethylene tube was placed over the suture on LAD as an occluder and the suture was pulled and the tube to ligate the coronary artery to induce regional ischemia. After a 20-min stabilization period, the hearts were treated by vehicle (DMSO control) or 0.3, 1, or 3 μM of the parent compound acacetin (0.3, 1, or 3 μM) for 10 min, and the LAD was ligated for 30-min. The ligation was released to allow for reperfusion for 2 h. Myocardial ischemia was confirmed by a decrease in left ventricular developed pressure and specific ST-T elevation on the ECG. At completing the reperfusion, the hearts were used to perform histological and/or molecular/biochemical analysis.
Hearts were excluded from the study if one of the following criteria was observed: (1) left ventricular developed pressure (LVP) was below 80 mmHg during baseline stabilization; (2) aortic wall was damaged during cannulation leading to a leakage during perfusion; or (3) hearts suffered from sustained irreversible arrhythmia during stabilization.
To determine the mechanisms of cardioprotection, the ischemia-reperfusion model was established in isolated rat hearts using accurate concentrations of the parent compound acacetin. The hearts perfused with the Langendorff system were exposed to 30 min ischemia (coronary ligation) followed by 120 min reperfusion (FIG. 5). After a 20 min stabilization period, the heart was treated with 0.3, 1, 3 μM acacetin, or equivolume vehicle (DMSO) for 10 min and then 30 min during ischemia.

The subject of the next data set is myocyte apoptosis. The data set can be described thus: TUNEL staining of myocardial slices. More on the design: species or system rat. The note with it: 3 μM; vehicle 51.1±3.8%; n=5, P<0.01 vs. vehicle. The protocol:
To observe the histological changes of the ischemia-reperfusion hearts, the left ventricle was sectioned into 2-3 mm slices and drop-fixed in 10% formalin solution. After adequate fixation (a minimum 48 hours in room temperature), tissue slices were transferred into 70% ethanol for long term storage at 4° C. Tissue paraffin infiltration is processed in the tissue processor (Leica, Asp200s).
When the program was complete, tissue slices with cut side down were transferred into a mold with paraffin to form a block. The tissue block was placed on a microtome (Leica, RM2125/RT, Germany) and cut into ˜5 μm slices. The tissue slices were float on the surface of 37° C. water bath until flat and then collected onto clean glass slides. […]
Terminal deoxynucleotidyl transferase-mediated dUTP nick end labeling (TUNEL) staining of myocardial slices was performed to detect apoptosis in myocardium using the TUNEL Apoptosis detection kit (Genscript, Cat. No L00297, Piscataway, N.J., USA) according to the manufacturer's instructions. […] For quantitative analysis, TUNEL-positive cells in 10 different sectors with approximately 100-200 cells/sector were counted with high-power magnification, Axioskop 2 plus with software Axioversion (Axiovs 20v.4.8.2.0). Apoptotic cells were expressed as percentage of total cells in the field.

A short description of data set [2]: Solubility of the purified prodrugs versus parent compound acacetin. The class given is physicochemical. The source says:
Prodrug B: Light yellow solid. Yield 54%. C16H11O7PNa2 (408.21). EI-MS: m/z 387.04 [M+H—Na]^+. ^1H NMR (400 MHz, DMSO-d6): δ=12.90 (s, 1H), 8.04 (d, J=8.8 Hz, 2H), 7.10 (d, J=8.8 Hz, 2H), 7.02 (s, 1H), 6.98 (s, 1H), 6.60 (s, 1H), 3.89 (s, 3H) ppm.

The term solubility denotes the dissolved amount per volume that the medium holds. Take `COc1ccc(-c2cc(=O)c3c(O)cc(O)cc3o2)cc1` [acacetin]: in data set [1], the water solubility entry is given as “water-insoluble”. The “coronary flow rate versus control” value with isolated rat hearts (0.3 μM, before ischemia) is on record as 108.9±2.3%; with isolated rat hearts (1 μM, before ischemia), 122.1±4.9%; in the data set on isolated rat hearts (3 μM, before ischemia), 125.8±6.6%. Further, the “increase of heart contractile function (left ventricular systolic pressure and +dP/dT)” value in the data set on isolated rat hearts (3 μM, before ischemia, n=10, P<0.01) is recorded as “around 10 % of control”. Further, in the data set with isolated rat hearts (3 μM, during ischemia and reperfusion, P<0.01 vs. vehicle), the “improvement of reduced coronary flow rate, difference vs. vehicle” value was 16-25%. In addition, the “prevention of decrease of heart contractile function induced by ischemia-reperfusion, difference vs. vehicle” value with isolated rat hearts (3 μM, P<0.01 vs. vehicle) was 15-20%. Moreover, the “TUNEL-positive nuclei (percentage cell number)” value in the data set on myocyte apoptosis came to 20.2±4.1%. Further, the solubility was less than 0.2 µg/mL in data set [2] (aqueous buffer, comparison with Tris solution pH=7.0, read-out: solubility (parent compound, compared with Prodrug A in Tris solution)) and less than 0.1 µg/mL in data set [2] (water, H2O, read-out: solubility (parent compound, compared with Prodrug B in H2O)).
